The nature of data set [1]: Pharmacokinetics for in vivo dosing.
The test system of another data set is C2C12 myoblasts. Nature of the data set: Mitochondrial potential, high-content imaging with MitoTracker dye. It counts as cell-based, mouse. How it is done: A) C2C12 myotubes were assayed for chymotrypsin-like proteasomal activity. […] C) Quantitation of the ICW in panel B. D) ICW for surface expression of Glut4 on L6 myotubes. E) ICW for insulin-induced incorporation of puromycin into C2C12 myotube surface proteins. F-G) High-content imaging and analysis of C2C12 myoblasts stained with a Mitotracker dye. H) Assay reproducibility from screening 22 compounds on two separate occasions. The Pearson correlation coefficient, r, and its associated p-value is indicated.
(§1) A) Each dot represents the effects of a compound in the indicated assays at 10 uM. N=4-6 from two different experiments. […] C) SR11466 is efficacious at inhibiting IL-6 secretion from A549 cells. C-E). […] D) Mitochondrial activity was measured in myoblasts using high content imaging with mitotracker dye after 24 treatment. New amino acid incorporation was measured with LICOR in cell western for puromycin (SunSet assay). E) top, MMTV-luciferase reporter data. N=3, mean+SEM. Bottom, Mineralization of primary human OBs was assayed after two weeks of differentiation from MSC and two weeks of mineralization. N=4, mean+SEM, 2-way ANOVA.
(§2) Physiologically, the effects of GCs on protein balance and Glut4 translocation vary in vivo depending upon the stressor. For example, GCs mediate atrophy in response to fasting but not exercise. […] To assess protein degradation, we measured chymotrypsin-like proteasomal activity (FIG. 2, A). The activating phosphorylation of AKT at Thr308 (pAKT) was measured using a LI-COR In-Cell Western assay (FIG. 2, B and C). The rate-limiting step in insulin-mediated glucose uptake is the translocation of the glucose transporter, Glut4, to the surface membrane, which we also measured by In-Cell Western without permeabilizing the myotubes (FIG. 2, D). Surface Sensing of Translation (SUnSET) (Schmidt et al., Nat Methods 6, 275-277, 2009) assay was used to measure protein synthesis by In-Cell Western, following treatment of myotubes with a low dose of puromycin, which incorporates into translating proteins, but at a low enough level to provide a readout for global protein synthesis (FIG. 2, E). Lastly, we developed a high-content imaging assay in myoblasts stained with a MitoTracker dye, so that individual mitochondrial networks could be visualized with adequate resolution to quantitate area, segmentation, branching, and fluorescence intensity which is a measure of mitochondrial membrane potential (ψm).

The nature of data set [2]: Loss of lean mass after a larger dose of LPS (whole-body NMR). It counts as in vivo, C57BL/6 male mice. As to conditions: additional 18 h LPS treatment. The source says: (§3) A) Correlation of correlation (COC) plots where each point represents the Pearson correlation coefficient, r, between a distinct gene expression or GR-peptide interaction assay with assays indicated on the x and y axes. B) The effects of all tested compounds on IL-1β-induced secretion of IL-6 (y axes) and GC-regulated phenotypes indicated on the x axes. C) The effects of all tested compounds on IL-1β-induced secretion of IL-6 (y axis) and bone mineralization (x axis). D) IL-1β-induced IL-6 production by A549 cells treated with 10 μM of the indicated compounds was compared by AlphaLISA. E-H) Myoblasts were assayed as described in FIG. 8. I) Representative myoblasts imaged during the mitochondrial potential assay. J) Plasma TNFα levels of C57BL/6 male mice treated pretreated with the indicated ligands. K) Changes in lean mass of mice in panel J were determined by whole-body NMR after an additional 18 h LPS treatment. Data shown are mean+SEM.

The next data set has as its system LPS-induced TNFα. Nature of the data set: LPS-induced plasma TNFα levels in mice. The format is in vivo, C57BL/6 male mice. As to conditions: mice pretreated with ligand.
From the text: as §3

The subject of data set [3] is mitochondrial activity, pAKT, protein synthesis, and bone. Nature of the data set: Compound profiling platform, overall profile (FIG. 15). It counts as cell-based. As to conditions: 10 uM. How it is done: N=4-6 from two different experiments. […] D) Mitochondrial activity was measured in myoblasts using high content imaging with mitotracker dye after 24 treatment. New amino acid incorporation was measured with LICOR in cell western for puromycin (SunSet assay). […] N=3, mean+SEM. […] N=4, mean+SEM, 2-way ANOVA.
To avoid such effects on myogenesis, we switched myoblasts to differentiation media, and then on day 4, added 10 μM cytarabine, a chemotherapy agent that kills dividing cells, and then adding GCs on day 6 or 7 and completing assays in day 8 (FIG. 8).
as §2
Additional studies were performed to assess activities of the various compounds identified from the previous profiling.

Data set [4] has as its system primary human osteoblasts. As to the kind of experiment: Osteoblast mineralization (Alizarin Red S) from mesenchymal stem cells. The format is cell-based. How it is done:
as §1
As a further test for dissociation, the compounds were profiled in primary human osteoblasts for effects on osteogenesis during 4 weeks of differentiation from mesenchymal stem cells. Specifically, osteoblast mineralization was examined as follows. Human mesenchymal stem cells (MSCs) at passage 2 were maintained in growth media consisted of alpha-MEM (Life Technologies, 32561-037) supplemented with 17% FBS (Sigma-Aldrich, 12303C), 2 mM L-glutarnine (Life Technologies, 25030-081), and 100 units/mL penicillin/streptomycin (Life Technologies, 15140-122). Effect of glucocorticoid receptor modulators on osteogenic differentiation of MSCs was quantified using Alizarin Red S (Sigma-Aldrich, A5533) staining. Briefly, human MSCs were seeded in the middle 8 wells of 48-well plates at plating density of 10,000 cells per well. PBS (Life Technologies, 10010-031) was added to surrounding wells to reduce evaporation of media in the middle wells during prolonged incubation. 24 h later, growth media was replaced by osteogenic induction media (OIM) consisted of low-glucose DMEM (Life Technologies, 10567-014) supplemented with 10% FBS (Sigma-Aldrich. 12303C), 50 μg/ml L-ascorbic-2-phosphate (Sigma-Aldrich, A8960), 10 mM β-glyceroiphosphate (Sigma-Aldrich, G9891), and glucocorticoid modulators. OIM containing test compounds was replaced every week. At the end of 2 weeks, monolayers were washed with PBS (Life Technologies, 10010-031), incubated in Richard-Allan Scientific™ Neutral Buffered Formalin (10%) (Thermo Scientific, 5725) for 2 h at room temperature, washed with deionized water and stained with Alizarin Red S for 30 min at room temperature. Monolayers were then rinsed 3×with deionized water until clear, stain was then extracted with 10% (w/v) cetylpyridinium chloride (Sigma-Aldrich, C0732) in 10 mM sodium phosphate (Sigma, S5011 and S5136), pH 7.0 for 15 min at room temperature and the amount of extracted dye quantified spectroscopically at 562 nm. Spectroscopic analysis performed using a synergy™ NEO HTS Multi-Mode Microplate Reader (BioTek Instruments, Inc.).

The test system of another data set is GILZ mRNA. Nature of the data set: GILZ gene expression. The format is cell-based.

These results are taken from patent publication US20230263808A1 (UNIVERSITY OF FLORIDA RESEARCH FOUNDATION, INCORPORATED, priority 2020, published 2023).

Entries after “also recorded” stand apart in the source; their conditions may differ.

As for `C=CCOC1CC2(C)C(CCC2(O)C#CC)C2CCc3cc(C(=O)Nc4cccnc4C)ccc3C12` (stereo not drawn) [SR11466], the “pharmacokinetics for in vivo dosing” value in data set [1] was “favorable pharmacokinetics”. Further, the “effect on mitochondrial activity / potential” value with C2C12 myoblasts is “enhanced”. Moreover, in data set [2], the “loss of lean mass following a larger dose of LPS” value is “significantly better than Dex”. In the data set on LPS-induced TNFα, the “LPS-induced TNFα levels in the blood” value is given as “strongly suppressed”. For the same compound, the “overall profile in compound profiling (anabolic effects, agonism)” value (shortened to “overall profile in compound profiling”) in data set [3] is given as “anti-inflammatory but muscle sparing; also recorded: anabolic effects”. In addition, the “effect on mineralization (bone)” value in data set [4] is recorded as “modest improvements on mineralization”.

As for `CC#CC1(O)CCC2C3CCc4cc(C(=O)Nc5cnccc5C)ccc4C3C(O)CC21C` (stereo not drawn) [SR15421], the “overall profile in compound profiling” value in data set [3] is “anabolic effects”. In data set [4], the “effect on mineralization (bone)” value was “completely bone sparing”.

Take `CC#CC1(O)CCC2C3CCc4cc(C(=O)Nc5cccnc5C)ccc4C3C(OCc3ccccc3Cl)CC21C` (stereo not drawn) [SR16024]: in data set [1], the “pharmacokinetics for in vivo dosing” value is given as “favorable pharmacokinetics”. Also, in the data set on C2C12 myoblasts, the “effect on mitochondrial activity / potential” value is recorded as “enhanced; also recorded: doubling; also recorded: anabolic profile in mitochondria”. Also, the “loss of lean mass following a larger dose of LPS” value in data set [2] was “protective”. For the same compound, the “LPS-induced TNFα levels in the blood” value in the data set on LPS-induced TNFα is listed as “not inhibitory”. Besides, the GILZ gene expression entry in the data set with GILZ mRNA is on record as “not activating GILZ”. In data set [3], the “overall profile in compound profiling” value is listed as “more antagonistic SGRMs; also recorded: anabolic effects”. Besides, the “effect on mineralization (bone)” value in data set [4] is reported as “bone sparing”.

Turning to `CC#CC1(O)CCC2C3CCc4cc(C(=O)Nc5cccnc5C)ccc4C3C(OCc3ccc(Cl)cc3)CC21C` (stereo not drawn) [SR16025], the GILZ gene expression result in the data set on GILZ mRNA is listed as “not activating GILZ”. Further, in data set [3], the “overall profile in compound profiling” value was “more antagonistic SGRMs; also recorded: anabolic effects”. Further, the “effect on mineralization (bone)” value in data set [4] is “more than quadrupled; also recorded: quadruple”.
